# Source: patent US7977366B2, “Treating an inflammatory disorder or inhibiting respiratory burst in adherent neutrophils with chemical inhibitors of neutrophil activation” (Cornell Research Foundation, Inc., priority 2003, dated 2011)
# Entries after “also recorded” stand apart in the source; their conditions may differ.
# Legend:
# human neutrophils = test: Neutrophil spreading on FBS-coated glass coverslips (phase-contrast microscopy); assay type: cell-based; conditions: TNF 100 ng/ml
# Protocol: Glass coverslips were placed in 12 well tissue culture plate and coated with FBS in 5% CO2 at 37° C. for at least 1 h and washed three times with 0.9% saline. Neutrophils (2×10^6) were added to each well containing a FBS-coated glass coverslip and 1 ml of reaction mixture and incubated or not with each compound at 37° C. for 30 min before stimulation with TNF (100 ng/ml), PMA (100 ng/ml) or an equal volume of KRPG. Cells were fixed with 2% paraformaldehyde and 3.7% formaldehyde buffer, and photographed with phase-contrast microscope.
# To determine whether any of these compounds are implicated in cytoskeletal rearrangement, neutrophils were treated with a compound of the present invention or DMSO and then activated with PMA or TNF. Human neutrophils, isolated as described herein above were plated on FBS-coated glass coverslips and incubated or not with a compound of the present invention at 37° C. for 30 min, followed by stimulation with TNF (100 ng/ml), PMA (100 ng/ml) or an equal volume of KRPG, fixed, and photographed with phase-contrast microscope. Neutrophils adhere and fully spread when activated. However, cells exposed to TNF after incubation with Comp I-IV were arrested in spreading. These compounds seem to block different stages of cell spreading. […] They display almost round and close to non-stimulated cell morphology to quite advanced, yet arrested phenotype before full spreading. […] None of the compounds impeded cell spreading induced by PMA.
# Syk = test: TNF and adhesion triggered tyrosine phosphorylation of Syk in neutrophils (immunoprecipitation, western blot); assay type: cell-based, human; conditions: for inhibition of TNF and adhesion triggered tyrosine phosphorylation of Syk: moderately inhibited; for TNF and adhesion triggered tyrosine phosphorylation (activation) of Syk: result in words
# Protocol: (§1) Tissue culture plates (Primaria, Falcon) were coated with 3 ml of FBS in 5% CO2 at 37° C. for at least 1 h and washed twice with 0.9% saline. Isolated human neutrophils (1.5×10^6) were added to each plate containing 4 ml of reaction mixture, incubated with each compound at 37° C. for 30 min, and stimulated with either buffer control or TNF (100 ng/ml). When cells were fully spread (20-40 min), they were treated with 5 mM diisopropylfluorophosphate to inhibit serine proteases and lysed with either 125 μl of SDS lysis buffer (10 mM Tris-HCl, pH 7.6, 150 mM NaCl, 1% SDS, 1 mM PMSF, 1 mM Na pyrophosphate, 1 mM NaF, 1 mM vanadate, 5 μg/ml each of aprotinin, leupeptin, chymostatin, pepstatin A) for western blot, or with 200 μl of non-denaturing modified RIPA buffer (10 mM Tris-HCl, pH 7.6, 150 mM NaCl, 1% Triton-X100, 1 mM PMSF, 1 mM Na pyrophosphate, 1 mM NaF, 1 mM vanadate, 5 μg/ml each of aprotinin, leupeptin, chymostatin, pepstatin A) for immunoprecipitation. The cell lysate was passed through a 26-gauge needle six times to shear DNA and centrifuged at 20,000×g for 15 min to remove cell debris and DNA. The protein concentration was determined using a Bio-Rad (Indianapolis, Ind.) kit. Cell lysates were separated by SDS-PAGE and transferred electrophoretically to nitrocellulose membranes (Schleicher & Schuell, Inc., Keene, N.H.). The membranes were incubated with 5% milk in TBST (1 M Tris-HCl, pH 7.5, 9% NaCl, 0.1% Tween-20) for 1 h at 37° C. and then overnight at 4° C. with anti-phosphotyrosine antibody (Santa Cruz), anti-Syk antibody (Transduction Laboratories, Newington, N.H.), anti-phospho-specific Pyk2 antibodies (Biosource International, Camarillo, Calif.), or anti-Pyk2 antibody (Upstate Biotech, Waltham, Mass.). Membranes were washed with TBST and incubated with secondary Ab conjugated with HRP in 5% milk in TBST for 1 h at 37° C. After further washing with TBST, bound antibody was detected by enhanced chemiluminescence (Pierce ECL, Amersham Pharmacia, Piscataway, N.J.).
# Also investigated was the impact of the compounds of the present invention on several known tyrosine kinases such as Src, Syk, and Pyk2, which are shown to be critical in the signaling pathways triggered by TNF. Kinase assays were performed according to the instructions provided by United Bioinformatica, Inc. ((UBI) Calgary, AB, Canada), from which recombinant Src and Syk were purchased. Briefly, after incubation of recombinant Src (40 U) (UBI, Calgary, AB, Canada) with each compound at RT for 30 min, Src kinase reaction buffer (100 mM Tris-HCl, pH 7.2, 125 mM MgCl2, 25 mM MnCl2, 2 mM EGTA, 0.25 mM NaOV4, 2 mM DTT), Src kinase substrate peptide (375 μM, UBI, Calgary, AB, Canada), and [γ-32P]ATP were added to the enzyme. After incubation at 30° C. for 10 min, the reaction was stopped by addition of 40% trichloroacetic acid (TCA). Samples were transferred to a P81 paper square (UBI, Calgary, AB, Canada), the unincorporated radioactivity was washed off with 0.75% phosphoric acid and acetone, and the assay square was placed in a scintillation counter. For Syk kinase assay, reaction buffer contained 50 mM Tris-HCl, pH 7.5, 0.1 mM EGTA, 0.1 mM NaOV4, 0.15 M 2-mercaptoethanol and substrate was poly (Glu-4-Tyr)(4:1) (CSI Biointernational, France). […] It appears that these compounds block—partially by Comp I and II and completely by Comp III and IV—upstream signaling events for Syk activation rather than directly blocking Syk activity.
# Pyk2 = test: TNF-induced phosphorylation of Pyk2 Y402 in neutrophils (western blot); assay type: cell-based, human
# Protocol: as §1, with “Cell lysates were separated by SDS-PAGE and transferred electrophoretically to nitrocellulose membranes (Schleicher & Schuell, Inc., Keene, N.H.). The membranes were incubated with 5% milk in TBST (1 M Tris-HCl, pH 7.5, 9% NaCl, 0.1% Tween-20) for 1 h at 37° C. and then overnight at 4° C. with anti-phosphotyrosine antibody (Santa Cruz), anti-Syk antibody (Transduction Laboratories, Newington, N.H.), anti-phospho-specific Pyk2 antibodies (Biosource International, Camarillo, Calif.), or anti-Pyk2 antibody (Upstate Biotech, Waltham, Mass.). Membranes were washed with TBST and incubated with secondary Ab conjugated with HRP in 5% milk in TBST for 1 h at 37° C.” left out, “N.J.). […]” for “N.J.).”
Compound,cell spreading triggered by TNF (human neutrophils),inhibition of TNF and adhesion triggered tyrosine phosphorylation of Syk (Syk),TNF and adhesion triggered tyrosine phosphorylation (activation) of Syk (Syk),TNF-induced phosphorylation of Pyk2 Y402 (activation of Pyk2) (Pyk2)
"Cc1nc(N/N=C/c2ccccc2O)c2c3c(sc2n1)CCCC3 [Comp I, 2-[(2-Methyl-5,6,7,8-tetrahydro-benzo[4,5]thieno [2,3-a]pyrimidin-4-yl)-hydrazonomethyl]-phenol]",very heterogeneous morphology,about 50%,–,–
"O=C1CC(c2ccccc2)=NN1c1cccc(Cl)c1 [Comp II, 2-(3-Chloro-phenyl)-5-phenyl-2,4-dihydro-pyrazol-3-one]",arrested after flattening and extending several filopodia; also recorded: inhibited,about 50%,did not block,did not block
"C(=N\Nc1ncnc2sc3c(c12)CCCC3)/c1cccnc1 [Comp III, N-Pyridin-3-ylmethylene-N-(5,6,7,8-tetrahydro-benzo[4,5] [2,3-a]pyrimidin-4-yl)-hydrazine]",after extending a few pseudopodia; also recorded: block cell spreading at the earliest stage,–,completely inhibited,–
"O=C(CSc1nc2ccccc2s1)N/N=C/c1cc([N+](=O)[O-])ccc1O [Comp IV, (Benzothiazol-2-ylsulfanyl)-acetic acid (2-hydroxy-5-nitro-benzylidene) -hydrazide]",arrested after flattening and extending several filopodia,–,completely inhibited,–
